Experimental data taken from patent US20050222266A1, “2-indanylamino derivatives for the therapy of chronic pain” (priority 2002, published 2005).
Counter-ions that a name gives are not always drawn.

Key:
[1] = system: carrageenan-induced thermal hyperalgesia; assay: carrageenan-induced thermal hyperalgesia model; format: in vivo, rats; details: for minimum effective dose: given 3 hours after carrageenan
Experimental: In the carrageenan-induced thermal hyperalgesia model, male rats were habituated to the rat plantar test apparatus and thermal hyperalgesia was then assessed as described in the paragraph concerning the CCI model. Briefly, after baseline paw withdrawal latencies were determined, animals received an intraplantar injection of carrageenan (100 μl of a 20 mg/ml solution) into the right hind paw. Paw withdrawal latencies (PWL) were reassessed following the same protocol as above 2.5 hours after carrageenan. (this time point represented the start of peak hyperalgesia) to ascertain that hyperalgesia had developed. CHF 3381 (3-10-30-60 mg/kg i.p. and 10-30-60-100 mg/kg p.o.) was then administered 3 hours post carrageenan and paw withdrawal latencies were taken again at 3.5, 4 and 5 hours post carrageenan. Carrageenan induced a significant reduction of paw withdrawal latency in all animals at 2.5 hours following injection. This hyperalgesia was maintained in vehicle-treated animals for at least five hours after carrageenan. The i.p. and p.o. administration of CHF 3381 at 3 hours after carrageenan, dose-dependently antagonised the maintenance of thermal hyperalgesia with respective minimum effective doses of 10 mg/kg i.p. and 30 mg/kg p.o. (Table 5).

[2] = system: formalin-induced flinching and licking behavior; assay: formalin model of inflammatory pain in rats; format: in vivo

NC(=O)CNC1Cc2ccccc2C1 [CHF 3381, N-2(indanyl)-glicinamide hydrochloride]
Paw withdrawal latency ([1]; 3 mg/kg i.p. at 3 h, 3.5 h after carrageenan): 5.1 ± 0.60 s | Paw withdrawal latency ([1]; 3 mg/kg i.p. at 3 h, 4.0 h after carrageenan): 6.7 ± 0.64 s | Paw withdrawal latency ([1]; 3 mg/kg i.p. at 3 h, 5.0 h after carrageenan): 8.3 ± 0.50 s | Paw withdrawal latency ([1]; 3 mg/kg i.p. group, 0 h (baseline, before carrageenan and dosing)): 11.2 ± 0.92 s | Paw withdrawal latency ([1]; 3 mg/kg i.p. group, 2.5 h after carrageenan (before dosing at 3 h)): 4.4 ± 0.50 s | Paw withdrawal latency ([1]; 10 mg/kg i.p. at 3 h, 3.5 h after carrageenan): 7.4 ± 0.50 s | Paw withdrawal latency ([1]; 10 mg/kg i.p. at 3 h, 4.0 h after carrageenan): 7.8 ± 0.66 s | Paw withdrawal latency ([1]; 10 mg/kg i.p. at 3 h, 5.0 h after carrageenan): 8.4 ± 0.80 s | Paw withdrawal latency ([1]; 10 mg/kg i.p. group, 0 h (baseline, before carrageenan and dosing)): 11.8 ± 0.49 s | Paw withdrawal latency ([1]; 10 mg/kg i.p. group, 2.5 h after carrageenan (before dosing at 3 h)): 5.1 ± 0.50 s | Paw withdrawal latency ([1]; 10 mg/kg p.o. at 3 h, 3.5 h after carrageenan): 6.65 ± 1.2 s | Paw withdrawal latency ([1]; 10 mg/kg p.o. at 3 h, 4.0 h after carrageenan): 6.90 ± 0.61 s | Paw withdrawal latency ([1]; 10 mg/kg p.o. at 3 h, 5.0 h after carrageenan): 7.29 ± 0.83 s | Paw withdrawal latency ([1]; 10 mg/kg p.o. group, 0 h (baseline, before carrageenan and dosing)): 12.96 ± 1.01 s | Paw withdrawal latency ([1]; 10 mg/kg p.o. group, 2.5 h after carrageenan (before dosing at 3 h)): 4.79 ± 0.71 s | Paw withdrawal latency ([1]; 30 mg/kg i.p. at 3 h, 3.5 h after carrageenan): 6.8 ± 0.70 s | Paw withdrawal latency ([1]; 30 mg/kg i.p. at 3 h, 4.0 h after carrageenan): 8.8 ± 0.80 s | Paw withdrawal latency ([1]; 30 mg/kg i.p. at 3 h, 5.0 h after carrageenan): 8.1 ± 0.80 s | Paw withdrawal latency ([1]; 30 mg/kg i.p. group, 0 h (baseline, before carrageenan and dosing)): 11.3 ± 0.84 s | Paw withdrawal latency ([1]; 30 mg/kg i.p. group, 2.5 h after carrageenan (before dosing at 3 h)): 4.7 ± 0.60 s | Paw withdrawal latency ([1]; 30 mg/kg p.o. at 3 h, 3.5 h after carrageenan): 7.38 ± 0.65 s | Paw withdrawal latency ([1]; 30 mg/kg p.o. at 3 h, 4.0 h after carrageenan): 7.61 ± 0.59 s | Paw withdrawal latency ([1]; 30 mg/kg p.o. at 3 h, 5.0 h after carrageenan): 9.04 ± 0.85 s | Paw withdrawal latency ([1]; 30 mg/kg p.o. group, 0 h (baseline, before carrageenan and dosing)): 11.98 ± 0.71 s | Paw withdrawal latency ([1]; 30 mg/kg p.o. group, 2.5 h after carrageenan (before dosing at 3 h)): 5.78 ± 0.93 s | Paw withdrawal latency ([1]; 60 mg/kg i.p. at 3 h, 3.5 h after carrageenan): 8.0 ± 1.20 s | Paw withdrawal latency ([1]; 60 mg/kg i.p. at 3 h, 4.0 h after carrageenan): 10.4 ± 1.39 s | Paw withdrawal latency ([1]; 60 mg/kg i.p. at 3 h, 5.0 h after carrageenan): 10.7 ± 0.90 s | Paw withdrawal latency ([1]; 60 mg/kg i.p. group, 0 h (baseline, before carrageenan and dosing)): 11.4 ± 0.85 s | Paw withdrawal latency ([1]; 60 mg/kg i.p. group, 2.5 h after carrageenan (before dosing at 3 h)): 4.1 ± 0.50 s | Paw withdrawal latency ([1]; 60 mg/kg p.o. at 3 h, 3.5 h after carrageenan): 8.68 ± 1.16 s | Paw withdrawal latency ([1]; 60 mg/kg p.o. at 3 h, 4.0 h after carrageenan): 8.20 ± 0.85 s | Paw withdrawal latency ([1]; 60 mg/kg p.o. at 3 h, 5.0 h after carrageenan): 8.34 ± 0.81 s | Paw withdrawal latency ([1]; 60 mg/kg p.o. group, 0 h (baseline, before carrageenan and dosing)): 11.98 ± 0.67 s | Paw withdrawal latency ([1]; 60 mg/kg p.o. group, 2.5 h after carrageenan (before dosing at 3 h)): 5.22 ± 0.58 s | reversal of thermal hyperalgesia induced by carrageenan ([1]; 100 mg/kg p.o. and 60 mg/kg i.p.): nearly complete reversal | Paw withdrawal latency ([1]; 100 mg/kg p.o. at 3 h, 3.5 h after carrageenan): 10.31 ± 1.20 s | Paw withdrawal latency ([1]; 100 mg/kg p.o. at 3 h, 4.0 h after carrageenan): 8.72 ± 0.75 s | Paw withdrawal latency ([1]; 100 mg/kg p.o. at 3 h, 5.0 h after carrageenan): 9.34 ± 0.85 s | Paw withdrawal latency ([1]; 100 mg/kg p.o. group, 0 h (baseline, before carrageenan and dosing)): 13.24 ± 0.75 s | Paw withdrawal latency ([1]; 100 mg/kg p.o. group, 2.5 h after carrageenan (before dosing at 3 h)): 5.52 ± 0.96 s | minimum effective dose ([1]; i.p.): 10 mg/kg | minimum effective dose ([1]; p.o.): 30 mg/kg | flinching and licking behavior during the early and late nociceptive phases [2]: clearly suppressed
